Measured values taken from the supplement of paper PMC6723410.

Test system: GUMC-403
Test: viability at highest tested concentration (max response) relative to DMSO (% of DMSO control); higher = less cytotoxic
Conditions: library / dose series: MIPE library, 11-point 1:3 dilution, 48 h
Method in brief: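 Each figure stands for viability at the highest tested concentration compared with vehicle control. It was measured by CellTiter-Glo luminescence on a ViewLux after 48 h of exposure to 23 nL of pinned compound, with vehicle wells taken as 100% and empty wells as 0%. The cells were patient-derived GUMC-403 papilloma cells grown by conditional reprogramming, plated at 700/well in 5 μL F + Y medium in 1536-well plates.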

| SMILES | viability (top concentration 46.1 µM) | viability (top concentration 13.4 µM) |
| --- | --- | --- |
| C/C=C(/C(=C/C)c1ccc(O)cc1)c1ccc(O)cc1 | 89.2 | – |
| CN(C)C1=C(Br)C=C(C=C1)C\2NC3=C(\C4=C2C(=O)CC(C)(C)C4)C5=CC=CC=C5C=C3 (centres undefined) | 99.8 | – |
| C[C@H](CCC(=O)O)[C@H]1CC[C@H]2[C@@H]3[C@H](O)C[C@@H]4C[C@H](O)CC[C@]4(C)[C@H]3CC[C@]12C | 128 | – |
| COc1cc(/C=C/C(=O)O)ccc1O | 115 | – |
| O=C(NCc1ccncc1)C12C[C@H]3C[C@@H](C1)CC(c1ccc(Cl)cc1)(C3)C2 | 108 | – |
| CCC[C@H](N[C@@H](C)C(=O)N1[C@H](C(=O)O)C[C@@H]2CCCC[C@@H]21)C(=O)OCC | 120 | – |
| CN(C)c1ccc(-c2nc3c(N4CCN(CC(=O)Nc5nccs5)CC4)c(Cl)cnc3[nH]2)cc1 | 110 | – |
| Cc1ccc([S+](=O)([O-])NC(=O)NN2CC3CCCC3C2)cc1 (centres undefined) | 109 | – |
| N[S+]([O-])(=O)C1=CC=C(NC/2=C/C(=O)C3=CC=CC=C3C2=O)C=C1 | 142 | – |
| CCOC(=O)N1CCN(/[N+]([O-])=N/Oc2ccc([N+](=O)[O-])cc2[N+](=O)[O-])CC1 | 118 | – |
| CN1CCc2c(n(Cc3ccc(C(=O)NO)cc3)c3ccccc23)C1 | 107 | – |
| C[S+](=O)([O-])Oc1ccc2c(NC(N)=O)c(C(=O)c3ccc(Cl)cc3Cl)oc2c1 | 108 | – |
| COc1cccc2c1[C@]13CCN(CC4CC4)[C@H](C2)[C@]1(OC)CCC(=O)C3 | 107 | – |
| CN1CCN(Cc2ccc(NC(=O)Nc3ccc(Oc4cc(NC(=O)C5CC5)ncn4)cc3)cc2C(F)(F)F)CC1 | 52.7 | – |
| CCCCCCCCCCCCc1ccc([S+](=O)([O-])Nc2nncs2)cc1 | 118 | – |
| N#CC[C@H](C1CCCC1)n1cc(-c2ncnc3[nH]ccc23)cn1 | 117 | – |
| Cc1cc2c(C(C)C)c(O)c(O)c(C=O)c2c(O)c1-c1c(C)cc2c(C(C)C)c(O)c(O)c(C=O)c2c1O | 77.1 | – |
| C[C@]1(c2nc3c(C(N)=O)cccc3[nH]2)CCCN1 | 72.9 | – |
| O=C(N[C@H]1CN2CCC1CC2)c1ccc(Cl)cc1 | 121 | – |
| CCC(=O)OCC(=O)[C@@]1(OC(=O)CC)[C@@H](C)C[C@H]2[C@@H]3CCC4=CC(=O)C=C[C@]4(C)[C@@]3(F)[C@@H](O)C[C@@]21C | 120 | – |
| CC(N[C@H]1C[C@@H]1c1ccccc1)c1ccc2c(c1)OCCO2 (some centres undefined) | 129 | – |
| NC\1=N\C(=O)N(\C=C1)[C@@H]2O[C@H](CO)[C@@H](O)[C@H]2O | 128 | – |

| SMILES | viability (top concentration 46.1 µM) | viability (top concentration 13.4 µM) |
| --- | --- | --- |
| N[C@@H]1CONC1=O | 127 | – |
| CCc1cccc2c3c([nH]c12)C(CC)(CC(=O)O)OCC3 (centres undefined) | 132 | – |
| CCC1=C[C@@H]2CN(C1)Cc1c([nH]c3ccccc13)[C@@](C(=O)OC)(c1cc3c(cc1OC)N(C)[C@H]1[C@@](O)(C(=O)OC)[C@H](OC(C)=O)[C@]4(CC)C=CCN5CC[C@]31[C@@H]54)C2 | 89.9 | – |
| Cc1cnc(Nc2ccc(CN3CCOCC3)cc2)nc1Nc1cccc([S+](=O)([O-])NC(C)(C)C)c1 | 31.1 | – |
| O=C1CCC[C@@H]2[C@H]3CCCN4CCC[C@@H](CN12)[C@@H]34 | 117 | – |
| C[C@](N)(Cc1ccc(O)c(O)c1)C(=O)O | 89.6 | – |
| CCCCCCCCCCCC/1=C(O)/C(=O)/C=C(O)\C1=O | 89 | – |
| Clc1ccc(C2(c3ccc(-c4cn[nH]c4)cc3)CCNCC2)cc1 | 59.9 | – |
| NC1(Cc2ccc(Cl)cc2)CCN(c2ncnc3[nH]ccc23)CC1 | 62.8 | – |
| CNC1[C@@H](O)C(O[C@@H]2C(O)C(O[C@H]3O[C@H]([C@@H](C)NC)CC[C@H]3N)[C@@H](N)C[C@H]2N)OC[C@]1(C)O (some centres undefined) | 101 | – |
| O=C1\C=C/C=C2/[C@H]3CNC[C@H](C3)CN12 | 136 | – |
| CC\1=C(C(=O)N(\C=C1)C2=CC=C(C=C2)C3=NC=CO3)/C4=CC5=CN=C(N)N=C5C=C4 | 79.7 | – |
| COc1cc([C@@H]2c3cc4c(cc3[C@@H](O[C@@H]3O[C@@H]5CO[C@@H](C)O[C@H]5[C@H](O)[C@H]3O)[C@H]3COC(=O)[C@H]23)OCO4)cc(OC)c1O | 124 | – |
| CN1[C@@H]2CC[C@H]1CC(OC(=O)c1c[nH]c3ccccc13)C2 (some centres undefined) | 134 | – |
| O=C(Nc1ncc(-c2cc(C(F)F)nn2-c2c(Cl)cccc2Cl)s1)C1CC1 | 84.9 | – |
| Cc1cc(O)c2c(c1)C(=O)c1cc(O)cc(O)c1C2=O | 114 | – |
| N[S+](=O)([O-])c1cc(Cl)c(Cl)c([S+](N)(=O)[O-])c1 | 109 | – |
| CNC(=O)CN1CCC(Oc2cc3c(Nc4cccc(Cl)c4F)ncnc3cc2OC)CC1 | 61.1 | – |
| OC(=O)C(CC/1=C/C(=O)NC2=CC=CC=C12)NC(=O)C3=CC=C(Cl)C=C3 (centres undefined) | 132 | – |
| O.O.CCN1CCN(C(=O)N[C@H](C(=O)N[C@H]2[C@@H]3SC\C(=C(/N3C2=O)C(O)=O)CSC4=NN=N[N]4C)C5=CC=C(O)C=C5)C(=O)C1=O | – | 130 |
| C[C@]12COC(=O)C[C@@H]1CC[C@@H]1[C@@H]2CC[C@@]2(C)[C@H]1CC[C@]2(C)O | 108 | – |
| COc1ccc(CCC(=O)Nc2nc3ccc(Cl)cc3s2)cc1OC | 47.9 | – |
